The text below walks through data of patent US10544143B2, “4-azaindole compounds” (BRISTOL-MYERS SQUIBB COMPANY, priority 2017, dated 2020).

Each structure is given as a SMILES string. Read-outs that look alike come from different tables or passages of the source.

Experiment [1] addresses human TLR7 (Homo sapiens (Human), UniProt Q9NYK1). As to the kind of experiment: TLR7 inhibition reporter assay (HEK-Blue SEAP). The experiment is classed as cell-based. On the technique in general: In a reporter assay the amount or activity of a reporter protein is the signal.
Experiment [2] deals with TLR7 (Mus musculus (Mouse), UniProt P58681). Description: In vivo mouse TLR7 PD model (gardiquimod challenge, plasma IL-6 and IFN-alpha). The following applies: C57BL/6 mice, plasma 90 min after gardiquimod i.p., vs vehicle. On the procedure:
In Vivo Mouse TLR7 PD Model:
Adult male C57BL/6 mice were used for the experiments. Mice (7 to 10 per group) were randomized into different treatment groups based on body weight. Mice from the respective treatment groups were administered orally with vehicle or test compound. Thirty min after the oral administration of vehicle or test compound, mice were challenged with intraperitoneal injection of gardiquimod for TLR7 PD model. Ninety minutes after gardiquimod injection, mice were bled under isoflurane anaesthesia and plasma IL-6 and IFN-alpha levels were estimated by using commercially available ELISA kit (BD Biosciences, PBL Life Sciences). At the end of experiment, mean cytokine data was plotted and one way ANOVA with Dunnett's test was performed to calculate the significance of test compound treated group vs. vehicle control group. Percent inhibition of cytokine induction was calculated for test compound treated group vs vehicle control group.

The target in experiment [3] is human TLR9 (Homo sapiens (Human), UniProt Q9NR96). Description: TLR9 inhibition reporter assay (HEK-Blue SEAP).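 Further: SEAP driven by an IFN-β minimal promoter with NF-κB and AP-1 sites, read after 22 h, compounds dosed 0.05 nM–50 µM, inhibition scaled between agonist plus DMSO and reference-inhibitor wells.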 The following applies: read-out: TLR9 IC50.
The target of experiment [4] is human TLR8 (Homo sapiens (Human), UniProt Q9NR97). As to the kind of experiment: TLR8 inhibition reporter assay (HEK-Blue SEAP).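 Further: SEAP driven by IFN-β minimal promoter carrying NF-κB and AP-1 sites, compounds dosed 0.05 nM to 50 µM for 22 h, inhibition scaled between agonist-plus-DMSO and reference-inhibitor wells.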 Conditions: read-out: TLR8 IC50.
Experimental: HEK-Blue™-cells (Invivogen) overexpressing human TLR7, TLR8 or TLR9 receptors were used for screening inhibitors of these receptors using an inducible SEAP (secreted embryonic alkaline phosphatase) reporter gene under the control of the IFN-β minimal promoter fused to five NF-κB and AP-1-binding sites. Briefly, cells are seeded into Greiner 384 well plates (15000 cells per well for TLR7, 20,000 for TLR8 and 25,000 for TLR9) and then treated with test compounds in DMSO to yield a final dose response concentration range of 0.05 nM-50 μM. After a 30 minute compound pre-treatment at room temperature, the cells are then stimulated with a TLR7 ligand (gardiquimod at a final concentration of 7.5 μM), TLR8 ligand (R848 at a final concentration of 15.9 μM) or TLR9 ligand (ODN2006 at a final concentration of 5 nM) to activate NF-κB and AP-1 which induce the production of SEAP. After a 22 hour incubation at 37° C., 5% CO2, SEAP levels are determined with the addition of HEK-Blue™ Detection reagent (Invivogen), a cell culture medium that allows for detection of SEAP, according to manufacturer's specifications.
[5] abbreviates: HEK-Blue cells overexpressing human TLR7, gardiquimod 7.5 μM stimulation, SEAP reporter.
Where [6] appears, read: HEK-Blue cells overexpressing human TLR9, ODN2006 5 nM stimulation, SEAP reporter.
Setting [7] is: HEK-Blue cells overexpressing human TLR8, R848 15.9 μM stimulation, SEAP reporter.
The mark [8] stands for this setting: HEK-Blue cells overexpressing human TLR7, SEAP reporter, gardiquimod 7.5 μM.
Where [9] appears, read: HEK-Blue cells overexpressing human TLR9, SEAP reporter, ODN2006 5 nM.
The mark [10] stands for this setting: HEK-Blue cells overexpressing human TLR8, SEAP reporter, R848 15.9 μM.
The mark [11] stands for this setting: HEK-Blue human TLR7 cells, gardiquimod 7.5 μM.
Where [12] appears, read: HEK-Blue human TLR9 cells, ODN2006 5 nM.
[13] abbreviates: HEK-Blue human TLR8 cells, R848 15.9 μM.

Sequence of human TLR8 (Q9NR97 27-1041): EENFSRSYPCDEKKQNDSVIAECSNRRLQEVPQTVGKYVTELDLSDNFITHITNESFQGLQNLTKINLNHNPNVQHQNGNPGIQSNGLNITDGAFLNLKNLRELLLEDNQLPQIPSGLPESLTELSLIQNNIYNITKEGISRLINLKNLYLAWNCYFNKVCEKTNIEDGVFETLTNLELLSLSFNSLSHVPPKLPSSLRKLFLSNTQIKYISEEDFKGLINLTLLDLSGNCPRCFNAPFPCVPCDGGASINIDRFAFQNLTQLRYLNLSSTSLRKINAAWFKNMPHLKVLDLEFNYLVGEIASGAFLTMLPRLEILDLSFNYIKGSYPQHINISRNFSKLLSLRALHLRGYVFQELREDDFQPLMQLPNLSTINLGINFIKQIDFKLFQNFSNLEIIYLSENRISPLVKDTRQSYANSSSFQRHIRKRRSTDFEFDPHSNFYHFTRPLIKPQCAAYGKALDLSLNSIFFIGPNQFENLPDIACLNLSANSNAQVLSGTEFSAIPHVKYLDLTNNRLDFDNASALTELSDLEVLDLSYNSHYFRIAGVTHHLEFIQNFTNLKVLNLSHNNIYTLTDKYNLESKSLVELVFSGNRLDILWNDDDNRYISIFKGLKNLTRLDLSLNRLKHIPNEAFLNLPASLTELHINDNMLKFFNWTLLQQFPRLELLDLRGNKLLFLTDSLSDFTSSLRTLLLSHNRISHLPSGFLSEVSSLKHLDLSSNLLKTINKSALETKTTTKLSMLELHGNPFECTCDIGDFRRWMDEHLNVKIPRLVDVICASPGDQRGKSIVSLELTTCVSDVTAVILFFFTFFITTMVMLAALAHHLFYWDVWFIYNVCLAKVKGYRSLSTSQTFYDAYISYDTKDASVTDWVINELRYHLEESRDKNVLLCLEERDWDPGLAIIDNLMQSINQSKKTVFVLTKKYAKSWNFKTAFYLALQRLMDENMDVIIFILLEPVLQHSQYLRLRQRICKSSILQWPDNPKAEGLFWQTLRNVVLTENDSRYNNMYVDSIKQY
Sequence of human TLR9 (Q9NR96 26-1032): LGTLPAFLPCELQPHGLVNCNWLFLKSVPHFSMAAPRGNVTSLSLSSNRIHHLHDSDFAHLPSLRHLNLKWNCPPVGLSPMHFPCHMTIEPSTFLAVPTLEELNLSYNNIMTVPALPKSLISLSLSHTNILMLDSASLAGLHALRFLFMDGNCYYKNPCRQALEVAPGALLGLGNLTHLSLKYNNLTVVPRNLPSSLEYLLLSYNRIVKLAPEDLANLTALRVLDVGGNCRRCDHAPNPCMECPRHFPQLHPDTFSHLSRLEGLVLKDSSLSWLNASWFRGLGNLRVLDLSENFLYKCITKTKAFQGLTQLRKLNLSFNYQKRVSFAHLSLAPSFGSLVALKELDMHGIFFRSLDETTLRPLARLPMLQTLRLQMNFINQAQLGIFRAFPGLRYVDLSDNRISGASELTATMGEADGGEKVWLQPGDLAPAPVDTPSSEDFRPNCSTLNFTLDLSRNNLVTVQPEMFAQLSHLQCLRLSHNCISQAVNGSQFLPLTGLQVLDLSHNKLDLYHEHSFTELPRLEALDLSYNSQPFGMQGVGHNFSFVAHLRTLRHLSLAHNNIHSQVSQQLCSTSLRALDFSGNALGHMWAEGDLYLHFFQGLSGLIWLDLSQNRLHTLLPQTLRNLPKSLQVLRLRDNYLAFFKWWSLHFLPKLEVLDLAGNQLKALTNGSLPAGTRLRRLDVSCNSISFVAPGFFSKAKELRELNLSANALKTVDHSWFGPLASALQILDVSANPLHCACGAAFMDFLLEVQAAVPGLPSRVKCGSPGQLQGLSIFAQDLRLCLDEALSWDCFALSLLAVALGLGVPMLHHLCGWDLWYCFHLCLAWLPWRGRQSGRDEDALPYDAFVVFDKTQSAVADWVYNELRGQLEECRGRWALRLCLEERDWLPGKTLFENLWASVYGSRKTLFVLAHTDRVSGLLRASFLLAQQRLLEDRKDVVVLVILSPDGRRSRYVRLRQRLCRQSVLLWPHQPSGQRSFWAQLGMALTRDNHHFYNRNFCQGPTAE
Sequence of human TLR7 (Q9NYK1 27-1049): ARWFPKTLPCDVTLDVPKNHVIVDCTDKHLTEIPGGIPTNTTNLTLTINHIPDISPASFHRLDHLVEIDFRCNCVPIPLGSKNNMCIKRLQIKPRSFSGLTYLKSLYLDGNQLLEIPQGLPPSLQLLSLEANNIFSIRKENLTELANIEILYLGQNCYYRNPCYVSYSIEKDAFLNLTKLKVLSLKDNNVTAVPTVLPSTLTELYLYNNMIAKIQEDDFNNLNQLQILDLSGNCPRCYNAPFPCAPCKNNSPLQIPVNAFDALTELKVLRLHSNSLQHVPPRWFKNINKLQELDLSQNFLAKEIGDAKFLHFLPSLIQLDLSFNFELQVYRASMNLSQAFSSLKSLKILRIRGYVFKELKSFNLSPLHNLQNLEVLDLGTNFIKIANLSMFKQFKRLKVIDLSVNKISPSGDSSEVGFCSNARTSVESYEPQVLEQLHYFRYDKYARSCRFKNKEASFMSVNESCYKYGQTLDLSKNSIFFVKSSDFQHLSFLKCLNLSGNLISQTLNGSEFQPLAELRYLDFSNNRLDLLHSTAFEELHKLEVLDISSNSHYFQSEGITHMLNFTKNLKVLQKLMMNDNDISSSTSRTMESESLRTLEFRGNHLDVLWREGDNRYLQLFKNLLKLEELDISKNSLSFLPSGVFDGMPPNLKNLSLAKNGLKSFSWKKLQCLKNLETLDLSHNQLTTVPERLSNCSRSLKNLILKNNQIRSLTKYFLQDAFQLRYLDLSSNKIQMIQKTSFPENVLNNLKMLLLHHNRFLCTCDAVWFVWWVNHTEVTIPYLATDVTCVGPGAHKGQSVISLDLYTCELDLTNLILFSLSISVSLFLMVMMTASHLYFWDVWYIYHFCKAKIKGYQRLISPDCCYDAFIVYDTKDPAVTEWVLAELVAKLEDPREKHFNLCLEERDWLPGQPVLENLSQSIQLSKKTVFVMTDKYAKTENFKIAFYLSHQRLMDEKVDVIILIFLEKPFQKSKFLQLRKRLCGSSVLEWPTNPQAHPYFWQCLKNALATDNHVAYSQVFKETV
Sequence of TLR7 (P58681 27-1050): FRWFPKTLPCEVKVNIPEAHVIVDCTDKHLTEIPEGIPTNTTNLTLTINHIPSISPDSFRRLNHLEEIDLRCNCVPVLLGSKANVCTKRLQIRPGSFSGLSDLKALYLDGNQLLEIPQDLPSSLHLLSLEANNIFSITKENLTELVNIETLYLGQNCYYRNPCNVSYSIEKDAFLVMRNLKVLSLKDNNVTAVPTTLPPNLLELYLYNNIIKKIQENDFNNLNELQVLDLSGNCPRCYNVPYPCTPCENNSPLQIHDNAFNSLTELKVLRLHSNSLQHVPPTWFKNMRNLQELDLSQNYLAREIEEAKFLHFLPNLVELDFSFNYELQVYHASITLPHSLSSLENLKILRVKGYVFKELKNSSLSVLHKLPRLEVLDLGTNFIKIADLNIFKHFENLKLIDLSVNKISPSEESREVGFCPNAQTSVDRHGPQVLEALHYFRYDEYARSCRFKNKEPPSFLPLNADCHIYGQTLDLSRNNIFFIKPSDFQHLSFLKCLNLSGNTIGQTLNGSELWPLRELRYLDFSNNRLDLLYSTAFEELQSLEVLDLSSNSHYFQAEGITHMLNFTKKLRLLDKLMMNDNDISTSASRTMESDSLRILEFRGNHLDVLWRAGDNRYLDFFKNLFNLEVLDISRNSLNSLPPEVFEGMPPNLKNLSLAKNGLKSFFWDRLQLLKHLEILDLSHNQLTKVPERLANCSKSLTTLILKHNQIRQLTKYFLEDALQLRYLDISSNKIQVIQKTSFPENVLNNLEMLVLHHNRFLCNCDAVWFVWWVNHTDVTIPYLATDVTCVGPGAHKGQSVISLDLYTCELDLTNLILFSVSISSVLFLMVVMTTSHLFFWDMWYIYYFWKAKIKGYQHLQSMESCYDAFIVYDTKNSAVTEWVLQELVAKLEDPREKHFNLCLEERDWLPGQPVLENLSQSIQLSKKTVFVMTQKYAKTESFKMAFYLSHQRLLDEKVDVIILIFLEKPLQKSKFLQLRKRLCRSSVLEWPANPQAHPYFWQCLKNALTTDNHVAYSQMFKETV

Take `Cc1c(-c2[nH]c3ccc(C4CCC(NCC5(S(C)(=O)=O)CC5)CC4)nc3c2C(C)C)cn2ncnc2c1C` (centres unmarked) [Example 4, 4-(2-(7,8-dimethyl-[1,2,4]triazolo[1,5-a]pyridin-6-yl)-3-isopropyl-1H-pyrrolo[3,2-b]pyridin-5-yl)-N-((1-(methylsulfonyl)cyclopropyl)methyl)cyclohexan-1-amine]: the 50% inhibitory concentration (IC50) (as a rule, the midpoint of a concentration-inhibition curve) in experiment [1] (setting [5]) was 0.0006 µM; in experiment [3] (setting [6]), 1.07 µM; in experiment [4] (setting [7]) it was 0.00071 µM. The “% inhibition of IFN-alpha” value is 0% in experiment [2] (0.0015 mg/kg oral); 33% in experiment [2] (0.003 mg/kg oral); 74% in experiment [2] (0.015 mg/kg oral); 93% in experiment [2] (0.075 mg/kg oral); 99% in experiment [2] (0.15 mg/kg oral). Moreover, the “% inhibition of IL6” value was 0% in experiment [2] (0.0015 mg/kg oral); 23% in experiment [2] (0.003 mg/kg oral); 75% in experiment [2] (0.015 mg/kg oral); 76% in experiment [2] (0.075 mg/kg oral); 95% in experiment [2] (0.15 mg/kg oral).
For the compound `Cc1c(-c2[nH]c3ccc(N4CCN(C(=O)CN(C)C)CC4)nc3c2C(C)C)cn2ncnc2c1C` [Example 3, 1-(4-(2-(7,8-dimethyl-[1,2,4]triazolo[1,5-a]pyridin-6-yl)-3-isopropyl-1H-pyrrolo[3,2-b]pyridin-5-yl)piperazin-1-yl)-2-(dimethylamino)ethan-1-one], the IC50 was 0.00093 µM in experiment [1] (setting [5]), 8.54 µM in experiment [3] (setting [6]) and 0.0011 µM in experiment [4] (setting [7]). Moreover, the “% inhibition of IFN-alpha” value in experiment [2] (0.005 mg/kg oral) is 29%; in experiment [2] (0.01 mg/kg oral), 37%; in experiment [2] (0.05 mg/kg oral) it was 94%; in experiment [2] (0.25 mg/kg oral), 99%; in experiment [2] (0.5 mg/kg oral), 100%. Moreover, the “% inhibition of IL6” value in experiment [2] (0.005 mg/kg oral) came out at 0%; in experiment [2] (0.01 mg/kg oral) it was 24%; in experiment [2] (0.05 mg/kg oral) it was 75%; in experiment [2] (0.25 mg/kg oral) it was 90%; in experiment [2] (0.5 mg/kg oral), 91%.
Regarding `Cc1c(-c2[nH]c3cc(F)c(C4CCC(NC5CCOCC5)CC4)nc3c2C(C)C)cn2ncnc2c1C` (centres unmarked) [Example 504], the IC50 in experiment [1] (setting [8]) amounted to 0.00055 µM; in experiment [3] (setting [9]) it was 3.74 µM; in experiment [4] (setting [10]), 0.00064 µM.
Consider `Cc1c(-c2[nH]c3ccc(N4CCNC[C@@H]4C)nc3c2C(C)C)cn2ncnc2c1C` [Example 152], for which the concentration for half-maximal inhibition (IC50) in experiment [1] (setting [5]) was determined as 0.0027 µM; in experiment [3] (setting [6]), 5.88 µM; in experiment [4] (setting [7]) it was 0.0016 µM.
The matching figures for `CC(C)c1c(-c2cn(CCS(C)(=O)=O)c3ncccc23)[nH]c2ccc(C3CCC(NC4CCOCC4)CC3)nc12` (centres unmarked) [Example 266]: 0.045 µM, 0.322 µM and 0.013 µM.
Take `CNC1CCC(c2ccc3[nH]c(-c4cn(CCS(C)(=O)=O)c5ncccc45)c(C(C)C)c3n2)CC1` (centres unmarked) [Example 264]: the half-inhibitory concentration (IC50) in experiment [1] (setting [5]) came out at 0.055 µM; in experiment [3] (setting [6]), 0.255 µM; in experiment [4] (setting [7]) it was 0.042 µM.
On to `COc1cc(-c2[nH]c3ccc(OC4CCN(CC(=O)N(C)C)CC4)nc3c2C(C)C)cn2ncnc12` [Example 609, 2-(4-((3-isopropyl-2-(8-methoxy-[1,2,4]triazolo[1,5-a]pyridin-6-yl)-1H-pyrrolo[3,2-b]pyridin-5-yl)oxy)piperidin-1-yl)-N,N-dimethylacetamide], for which the IC50 amounted to 0.0026 µM in experiment [1] (setting [8]), 2.72 µM in experiment [3] (setting [9]) and 0.023 µM in experiment [4] (setting [10]).
With `COC1CN(CC(=O)N2CCN(c3ccc4[nH]c(-c5cn6ncnc6c(C)c5C)c(C(C)C)c4n3)CC2)C1` [Example 916], the IC50 was found to be […] in experiment [1] (setting [11]), 14.5 µM in experiment [3] (setting [12]) and 0.011 µM in experiment [4] (setting [13]).
The matching figures for `Cc1c(-c2[nH]c3ccc(N4C[C@@H](C)N(C(=O)CCN5CCC6(COC6)C5)C[C@@H]4C)nc3c2C(C)C)cn2ncnc2c1C` [Example 961]: 0.00035 µM, 8.34 µM and 0.0008 µM.
Regarding `Cc1c(-c2[nH]c3ccc(C4CCC(N5CCS(=O)(=O)CC5)CC4)nc3c2C(C)C)cn2ncnc2c1C` (centres unmarked) [Example 383], the results for the IC50 in experiment [1] (setting [5]), in experiment [3] (setting [6]) and in experiment [4] (setting [7]) were 0.033 µM, over 50 µM and 0.167 µM, respectively.
As to `COc1cc(-c2[nH]c3ccc(OC4CN(C5CCOCC5)C4)nc3c2C(C)C)cn2ncnc12` [Example 595, 6-(3-isopropyl-5-((1-(tetrahydro-2H-pyran-4-yl)azetidin-3-yl)oxy)-1H-pyrrolo[3,2-b]pyridin-2-yl)-8-methoxy-[1,2,4]triazolo[1,5-a]pyridine], the IC50 was 0.122 µM in experiment [1] (setting [8]), 10.9 µM in experiment [3] (setting [9]) and over 3.12 µM in experiment [4] (setting [10]).
Turning to `CNC1CCC(c2ccc3[nH]c(-c4cc(OC)c5ncnn5c4)c(C(C)C)c3n2)CC1` (centres unmarked) [Example 189], the IC50 came to 0.0016 µM in experiment [1] (setting [5]), 0.313 µM in experiment [3] (setting [6]) and 0.0067 µM in experiment [4] (setting [7]).
Consider `Cc1c(-c2[nH]c3ccc(C4CC5(C4)CN(CCC(N)=O)C5)nc3c2C(C)C)cn2ncnc2c1C` [Example 1029], for which the IC50 in experiment [1] (setting [11]) came to 0.0014 µM; in experiment [3] (setting [12]), 8.38 µM; in experiment [4] (setting [13]) it was 0.005 µM.
For `Cc1c(-c2[nH]c3ccc(N4CCNC(=O)C4)nc3c2C(C)C)cn2ncnc2c1C` [Example 150], the IC50 in experiment [1] (setting [5]) was 0.012 µM; in experiment [3] (setting [6]), over 50 µM; in experiment [4] (setting [7]), 0.0027 µM.
As to `Cc1cc2[nH]c(-c3cc(C)c4ncnn4c3)c(C(C)C)c2nc1C1CCN(CC(=O)N(C)C)CC1` [Example 581], the IC50 in experiment [1] (setting [8]) came to 0.0003 µM; in experiment [3] (setting [9]) it was 4.92 µM; in experiment [4] (setting [10]), 0.079 µM.
On the same counts, the results for `Cc1c(-c2[nH]c3ccc(C4CCC(N(CC#N)CCS(C)(=O)=O)CC4)nc3c2C(C)C)cn2ncnc2c1C` (centres unmarked) [Example 458] are 0.005 µM, 9.84 µM and 0.01 µM.
On the same counts, the results for `Cc1c(-c2[nH]c3ccc(N4C[C@@H](C)NC[C@@H]4C)nc3c2C(C)C)cn2ncnc2c1C` [Example 737, 6-(5-((2S,5R)-2,5-dimethylpiperazin-1-yl)-3-isopropyl-1H-pyrrolo[3,2-b]pyridin-2-yl)-7,8-dimethyl-[1,2,4]triazolo[1,5-a]pyridine] are 0.00059 µM, 7.77 µM and 0.00055 µM.
As to `COc1cc(-c2[nH]c3ccc(CCC4CN(CC5(C)COC5)C4)nc3c2C(C)C)cn2ncnc12` [Example 706], the values for the half-maximal inhibitory concentration (IC50) in experiment [1] (setting [8]), in experiment [3] (setting [9]) and in experiment [4] (setting [10]) were 0.0085 µM, 1.02 µM and 0.018 µM, respectively.
The matching figures for `Cc1cc2[nH]c(-c3cn4ncnc4c(C)c3C)c(C(C)C)c2nc1C1CCC(NC2COC2)CC1` (centres unmarked) [Example 502]: 0.00079 µM, 2.9 µM and 0.0051 µM.
The matching figures for `COc1ncc(CN(C)C2CCC(c3ccc4[nH]c(-c5cn6ncnc6c(C)c5C)c(C(C)C)c4n3)CC2)cn1` (centres unmarked) [Example 395]: 0.0074 µM, 1.62 µM and 0.01 µM.
On the same counts, the results for `Cc1c(-c2[nH]c3ccc(N4CCN(C(C)C)[C@@H](C)C4)nc3c2C(C)C)cn2ncnc2c1C` [Example 792] are 0.004 µM, 8.55 µM and 0.001 µM.
Regarding `Cc1c(-c2[nH]c3ccc(N4C[C@@H](C)N(C(=O)CN(C)C(C)(C)C)[C@H](C)C4)nc3c2C(C)C)cn2ncnc2c1C` [Example 926], the IC50 in experiment [1] (setting [11]) stood at 0.0033 µM; in experiment [3] (setting [12]), 3.04 µM; in experiment [4] (setting [13]) it was 0.003 µM.
As for `COc1cc(-c2[nH]c3ccc(C4CCC(=O)CC4)nc3c2C(C)C)cn2ncnc12` [Example 176], the 50% inhibitory concentration (IC50) in experiment [1] (setting [5]) turned out to be 0.0052 µM; in experiment [3] (setting [6]), 16 µM; in experiment [4] (setting [7]) it was 0.084 µM.
Consider `Cc1c(-c2[nH]c3ccc(N4C[C@H](C)N(C(C)C)C[C@H]4C)nc3c2C(C)C)cn2ncnc2c1C` [Example 841], for which the IC50 turned out to be 0.0056 µM in experiment [1] (setting [11]), 14.3 µM in experiment [3] (setting [12]) and 0.028 µM in experiment [4] (setting [13]).
`Cc1cc2[nH]c(-c3cc(C)c4ncnn4c3)c(C(C)C)c2nc1C1CCN(C2CCOCC2)CC1` [Example 575]: the half-inhibitory concentration (IC50) is 0.00044 µM in experiment [1] (setting [8]), 1.35 µM in experiment [3] (setting [9]) and 0.121 µM in experiment [4] (setting [10]).
For `COc1cc(-c2[nH]c3ccc(C4CCC(N(C)CCC#N)CC4)nc3c2C(C)C)cn2ncnc12` (centres unmarked) [Example 166], the half-inhibitory concentration (IC50) in experiment [1] (setting [5]) is 0.0015 µM; in experiment [3] (setting [6]), 2.19 µM; in experiment [4] (setting [7]), 0.018 µM.
